Where two headings read alike, the source gives them in different places.
Tests used:
human OX1R = molecular target: T1, human OX1R (Homo sapiens, UniProt O43613); experiment: Agonist activity against OX1R: intracellular calcium (Fura-2AM, FDSS7000) in CHOOX1R cells; assay type: cell-based; details: for Emax at 0.1 µM / Emax at 1 µM / Emax at 10 µM: read-out: Response (%) OX1R
T1 construct: expressed in transfected cells; host or cells: CHO (Chinese hamster ovary) cells, line CHOOX1R, co-expressing NFAT-luciferase
T1 sequence (O43613 1-425): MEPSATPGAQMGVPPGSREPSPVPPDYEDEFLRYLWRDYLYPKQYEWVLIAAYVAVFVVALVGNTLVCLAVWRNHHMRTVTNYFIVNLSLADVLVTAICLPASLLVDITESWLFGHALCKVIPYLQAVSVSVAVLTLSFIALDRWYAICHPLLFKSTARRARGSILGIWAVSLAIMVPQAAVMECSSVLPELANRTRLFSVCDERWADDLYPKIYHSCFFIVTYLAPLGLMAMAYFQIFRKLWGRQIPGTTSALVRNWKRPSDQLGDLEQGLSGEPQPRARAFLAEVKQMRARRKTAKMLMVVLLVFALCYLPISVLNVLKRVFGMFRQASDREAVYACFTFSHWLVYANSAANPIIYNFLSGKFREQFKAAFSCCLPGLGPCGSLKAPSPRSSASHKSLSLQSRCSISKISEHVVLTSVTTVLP
Summary of the method: (§1)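 CHO cells stably expressing human OX1R or OX2R (plus NFAT-luciferase) were loaded with 5 μM Fura-2AM for 60 min, then given compound at 10^−7 to 10^−5 M final (1% DMSO). Calcium change read as 340/380 nm excitation fluorescence ratio; response expressed as % of orexin-A maximal activity at 10, 1.0 and 0.1 μM.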

human OX2R = molecular target: T2, human OX2R (Homo sapiens, UniProt O43614); experiment: Agonist activity against OX2R: intracellular calcium (Fura-2AM, FDSS7000) in CHOOX2R cells; assay type: cell-based; details: relative to orexin-A as full agonist (100%)
T2 construct: expressed in transfected cells; host or cells: CHO (Chinese hamster ovary) cells, line CHOOX2R, co-expressing NFAT-luciferase
T2 sequence (O43614 1-444): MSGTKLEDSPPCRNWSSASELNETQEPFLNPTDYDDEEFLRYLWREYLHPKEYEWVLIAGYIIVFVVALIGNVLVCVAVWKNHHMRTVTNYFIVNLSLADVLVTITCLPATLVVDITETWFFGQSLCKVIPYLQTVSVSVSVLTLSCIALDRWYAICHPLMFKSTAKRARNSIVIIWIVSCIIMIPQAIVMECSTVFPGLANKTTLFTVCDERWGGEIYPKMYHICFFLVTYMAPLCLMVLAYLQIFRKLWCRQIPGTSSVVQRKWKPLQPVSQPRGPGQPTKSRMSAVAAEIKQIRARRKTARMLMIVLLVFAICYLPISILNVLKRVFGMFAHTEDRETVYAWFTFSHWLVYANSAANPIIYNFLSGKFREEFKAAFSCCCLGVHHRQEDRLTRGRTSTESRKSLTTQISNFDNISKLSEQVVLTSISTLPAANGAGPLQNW
Summary of the method: as §1

[1] = test compound 0.1 μM, relative to orexin-A as full agonist (100%)
[2] = test compound 1.0 μM, relative to orexin-A as full agonist (100%)
[3] = test compound 10 μM, relative to orexin-A as full agonist (100%)
[4] = 0.1 μM test compound, relative to orexin-A as full agonist (100%)
[5] = 1.0 μM test compound, relative to orexin-A as full agonist (100%)
[6] = 10 μM test compound, relative to orexin-A as full agonist (100%)

Structure (SMILES) | Response (%) OX2R (human OX2R; test compound 0.1 μM) [%] | Response (%) OX2R (human OX2R; test compound 1.0 μM) [%] | Response (%) OX2R (human OX2R; test compound 10 μM) [%] | Response (%) OX1R (human OX1R; [4]) [%] | Response (%) OX1R (human OX1R; [5]) [%] | Response (%) OX1R (human OX1R; [6]) [%] | Response (%) OX2R (human OX2R; 0.1 μM test compound) [%] | Response (%) OX2R (human OX2R; 1.0 μM test compound) [%] | Response (%) OX2R (human OX2R; 10 μM test compound) [%] | further results
COc1ccc(Nc2cccc(NS(=O)(=O)c3cc(-c4cccc(C(=O)N(C)C)c4)ccc3OC)c2)cc1OC [Example 33] |  |  |  | <5 | <5 | 50 | 37 | 92 | 87 | 
COc1ccc(-c2cccc(C(=O)N(C)C)c2)cc1S(=O)(=O)Nc1cccc(N(C)C(=O)N(C)c2cccc(N(C)C)c2)c1 [Example 126, 3′-(N-(3-(3-(3-(dimethylamino)phenyl)-1,3-dimethylureido)phenyl)sulfamoyl)-4′-methoxy-N,N-dimethyl-[1,1′-biphenyl]-3-carboxamide] | 7 | 37 | 85 |  |  |  |  |  |  | Emax at 0.1 µM (human OX1R): 5%; Emax at 1 µM (human OX1R): 5%; Emax at 10 µM (human OX1R): < 5%
COc1ccc(C(=O)Nc2cccc(N(C)C)c2)cc1S(=O)(=O)Nc1cccc(NC(=O)Nc2cccc(N(C)C)c2)c1 [Example 106] | 9 | 7 | 46 |  |  |  |  |  |  | Response (%) OX1R (human OX1R; [1]): 8%; Response (%) OX1R (human OX1R; [2]): 7%; Response (%) OX1R (human OX1R; [3]): 8%
COc1ccc(NC(=O)Nc2cccc(NS(=O)(=O)c3cc(-c4cccc(C(=O)N(C)C)c4)ccc3OC)c2)cc1 [Example 53] |  |  |  | <8 | 6 | 26 | 98 | 95 | 100 | 
COc1ccc(-c2cccc(C(=O)N(C)C)c2)cc1S(=O)(=O)Nc1cccc(NC(=O)Nc2ccc(NC(=N)N)cc2)c1 [Example 60] |  |  |  | <5 | <5 | <5 | <5 | <5 | 31 | 
COc1ccc(-c2cccc(C(=O)N(C)C)c2)cc1S(=O)(=O)Nc1cccc(NC(=O)c2ccc3c(c2)OCO3)c1 [Example 5] |  |  |  | 8 | 8 | 7 | 10 | 8 | 19 | 
COc1ccc(-c2cccc(C(=O)N(C)C)c2)cc1S(=O)(=O)Nc1cccc(NC(=O)N(C)c2cccc(N(C)C)c2)c1 [Example 127, 3′-(N-(3-(3-(3-(dimethylamino)phenyl)-3-methylureido)phenyl)sulfamoyl)-4′-methoxy-N,N-dimethyl-[1,1′-biphenyl]-3-carboxamide] | 106 | 90 | 73 |  |  |  |  |  |  | Emax at 0.1 µM (human OX1R): < 5%; Emax at 1 µM (human OX1R): 7%; Emax at 10 µM (human OX1R): 56%
COc1ccc(-c2cccc(C(=O)N(C)C)c2)cc1S(=O)(=O)Nc1cccc(NC(=O)c2cccc(N(C)C)c2)c1 [Example 7] |  |  |  | 6 | 8 | 27 | 8 | 10 | 24 | 
COc1ccc(-c2cccc(C(=O)N(C)C)c2)cc1S(=O)(=O)Nc1cccc(NC(=O)Nc2cc([N+](=O)[O-])cc([N+](=O)[O-])c2)c1 [Example 47] |  |  |  | <5 | <5 | <5 | 7 | 81 | 102 | 
COc1ccc(-c2cccc(C(=O)N(C)C)c2)cc1S(=O)(=O)Nc1cccc(NS(=O)(=O)c2cccc(F)c2)c1 [Example 88] | 15 | 13 | 13 |  |  |  |  |  |  | Response (%) OX1R (human OX1R; [1]): 7%; Response (%) OX1R (human OX1R; [2]): 7%; Response (%) OX1R (human OX1R; [3]): 9%
COc1ccc(-c2cccc(C(=O)N(C)C)c2)cc1S(=O)(=O)Nc1cccc(N2CCN(c3ccccc3N(C)C)C2=O)c1 [Example 129] | 85 | 93 | 92 |  |  |  |  |  |  | Response (%) OX1R (human OX1R; [1]): <5%; Response (%) OX1R (human OX1R; [2]): 41%; Response (%) OX1R (human OX1R; [3]): 81%
COc1ccc(-c2cccc(C(=O)N(C)C)c2)cc1S(=O)(=O)Nc1cccc(NC(=O)c2ccccc2C)c1 [Example 16] |  |  |  | <5 | <5 | 10 | <5 | 19 | 82 | 
COc1ccc(-c2cccc(C(=O)N(C)C)c2)cc1S(=O)(=O)Nc1cccc(NC(=O)Nc2ccc(N(C)C)cc2)c1 [Example 39] |  |  |  | <5 | <5 | 32 | 73 | 59 | 53 | 
Cc1ccc(-c2cccc(C(=O)N(C)C)c2)cc1S(=O)(=O)Nc1cccc(NC(=O)Nc2cccc(N(C)C)c2)c1 [Example 117] | <5 | 16 | 44 |  |  |  |  |  |  | Response (%) OX1R (human OX1R; [1]): <5%; Response (%) OX1R (human OX1R; [2]): <5%; Response (%) OX1R (human OX1R; [3]): <5%

Further lines, with some results ahead:

Response (%) OX2R (human OX2R; test compound 0.1 μM) [%] | Response (%) OX2R (human OX2R; test compound 1.0 μM) [%] | Response (%) OX2R (human OX2R; test compound 10 μM) [%] | Response (%) OX1R (human OX1R; [4]) [%] | Response (%) OX1R (human OX1R; [5]) [%] | Response (%) OX1R (human OX1R; [6]) [%] | Response (%) OX2R (human OX2R; 0.1 μM test compound) [%] | Response (%) OX2R (human OX2R; 1.0 μM test compound) [%] | Response (%) OX2R (human OX2R; 10 μM test compound) [%] | Structure (SMILES) | further results
<5 | <5 | 27 |  |  |  |  |  |  | COc1ccc(Nc2c(Nc3cccc(NS(=O)(=O)c4cc(-c5cccc(C(=O)N(C)C)c5)ccc4OC)c3)c(=O)c2=O)cc1 [Example 81] | Response (%) OX1R (human OX1R; [1]): <5%; Response (%) OX1R (human OX1R; [2]): <5%; Response (%) OX1R (human OX1R; [3]): 7%
 |  |  | <5 | <5 | 12 | <5 | 37 | 54 | COc1ccccc1CNc1cccc(NS(=O)(=O)c2cc(-c3cccc(C(=O)N(C)C)c3)ccc2OC)c1 [Example 21] | 
<5 | <5 | 11 |  |  |  |  |  |  | COc1ccccc1Nc1c(Nc2cccc(NS(=O)(=O)c3cc(-c4cccc(C(=O)N(C)C)c4)ccc3OC)c2)c(=O)c1=O [Example 83] | Response (%) OX1R (human OX1R; [1]): <5%; Response (%) OX1R (human OX1R; [2]): <5%; Response (%) OX1R (human OX1R; [3]): 9%
35 | 95 | 95 |  |  |  |  |  |  | COc1ccc(-c2cccc(C(=O)N(C)C)c2)cc1S(=O)(=O)Nc1cccc(NCC(=O)NCc2cccc(C)c2)c1 [Example 92, 4′-methoxy-N,N-dimethyl-3′-(N-(3-((2-((3-methylbenzyl)amino)-2-oxoethyl)amino)phenyl)sulfamoyl)-[1,1′-biphenyl]-3-carboxamide] | Emax at 0.1 µM (human OX1R; [1]): < 5%; Emax at 1 µM (human OX1R; [2]): 6%; Emax at 10 µM (human OX1R; [3]): 30%
 |  |  |  |  |  | <5 | <5 | 51 | COc1ccc(-c2cccc(C(=O)N(C)C)c2)cc1S(=O)(=O)Nc1cccc(Nc2c(OC)c(=O)c2=O)c1 [Example 79, 4′-methoxy-3′-(N-(3-((2-methoxy-3,4-dioxocyclobut-1-en-1-yl)amino)phenyl)sulfamoyl)-N,N-dimethyl-[1,1′-biphenyl]-3-carboxamide] | Emax at 0.1 µM (human OX1R; [4]): < 5%; Emax at 1 µM (human OX1R; [5]): < 5%; Emax at 10 µM (human OX1R; [6]): < 5%
 |  |  | <5 | <5 | 14 | 13 | 79 | 88 | COc1cccc(Nc2cccc(NS(=O)(=O)c3cc(-c4cccc(C(=O)N(C)C)c4)ccc3OC)c2)c1 [Example 32] | 
 |  |  | 5 | 6 | 5 | <5 | 41 | 47 | COc1ccc(-c2cccc(C(=O)N(C)C)c2)cc1S(=O)(=O)Nc1cccc(NC(=O)c2ccc3ccccc3c2)c1 [Example 9] | 

Reference: patent publication US10351522B2, “Sulfonamide derivative and pharmaceutically acceptable acid addition salt thereof” (UNIVERSITY OF TSUKUBA, priority 2015, dated 2019)
